Read-outs that look alike come from different tables or passages of the source.
Test system: HCV genotype 1b replicon in Huh 7 cells
Test: HCV replicon assay (1b_Huh-Luc/Neo-ET cell line, luciferase readout)
Format: cell-based
Conditions: Hepatitis C virus, read-out: Inhibition of HCV genotype 1b
Procedure, shortened: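 Huh 7 cells carrying a bicistronic genotype 1b luciferase replicon were treated with compound in triplicate the day after plating and incubated 72 h. Luciferase activity expressed as % of untreated control; EC50 from a four-parameter logistic fit, repeated several times.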

[1] = Table 2, genotype 1b replicon, Huh 7 cells, 72 h, luciferase
[2] = Table 1, genotype 1b replicon, Huh 7 cells, 72 h, luciferase

## COC[C@H](NC(=O)OC)C(=O)N1CCC[C@H]1c1ncc(-c2ccc3cc(-c4ccc(-c5cnc([C@@H]6CCCN6C(=O)[C@H](NC(=O)OC)c6cccs6)[nH]5)cc4)ccc3c2)[nH]1 [compound 496]
Huh-7, HCV 1b replicon
  EC50: < 1 nM

## COC(=O)N[C@H](C(=O)N1CCC[C@H]1c1ncc(-c2ccc3cc(-c4ccc5nc([C@@H]6CCCN6C(=O)[C@@H](NC(=O)OC)C6CCCCC6)[nH]c5c4)nnc3c2)[nH]1)C1CCCCC1 [compound 400]
[1]
  EC50: < 1 nM

## COC(=O)N[C@H](C(=O)N1CCC[C@H]1c1nc(-c2cnc3cc(-c4ccc(-c5cnc([C@@H]6CCCN6C(=O)[C@H](NC(=O)OC6CCOCC6)c6ccccc6)[nH]5)cc4)ccc3c2)c[nH]1)C1CCOCC1 [compound 89]
[2]
  EC50: < 1 nM

## COC(=O)N[C@@H](C)C(=O)N1CCOC[C@H]1c1ncc(-c2ccc3cc(-c4ccc(-c5cnc([C@@H]6CCCN6C(=O)[C@H](NC(=O)OC)c6ccccc6)[nH]5)cc4)ccc3c2)[nH]1 [compound 326]
[1]
  EC50: < 1 nM

## CC[C@@H](C)[C@H](NC(=O)OC)C(=O)N1CCC[C@H]1c1ncc(-c2ccc3nc(-c4ccc5nc([C@@H]6CCCN6C(=O)[C@@H](NC(=O)OC)[C@H](C)CC)[nH]c5c4)ccc3c2)[nH]1 [compound 384]
[1]
  EC50: < 1 nM

## COC(=O)N[C@@H](C(=O)N1CCC[C@H]1c1nc(-c2ccc3c(c2)CCN(c2ccc(-c4cnc([C@@H]5CCCN5C(=O)[C@H](NC(=O)OC)c5ccccc5)[nH]4)cc2)C3=O)c[nH]1)c1ccccc1 [compound 289]
[2]
  EC50: < 1 nM

## COC[C@H](NC(=O)OC)C(=O)N1CCC[C@H]1c1ncc(-c2ccc3cc(-c4ccc(-c5cnc([C@@H]6CCCN6C(=O)[C@H](NC(=O)OC)c6ccccc6)[nH]5)nn4)ccc3c2)[nH]1 [compound 477]
Huh-7, HCV 1b replicon
  EC50: < 1 nM

## COC(=O)N[C@H](C(=O)N1CCOC[C@H]1c1ncc(-c2ccc3cc(-c4ccc5nc([C@@H]6CCCN6C(=O)[C@@H](NC(=O)OC)C(C)C)[nH]c5c4)ccc3c2)[nH]1)C(C)C [compound 220]
[2]
  EC50: < 1 nM

## COC(=O)N[C@H](C(=O)N1CCC[C@H]1c1ncc(-c2ccc3cc(-c4ccc(-c5cnc([C@@H]6CCCN6C(=O)[C@H](NC(=O)OC)c6cccs6)[nH]5)cc4)ccc3c2)[nH]1)C(C)O (stereo partly shown) [compound 498]
Huh-7, HCV 1b replicon
  EC50: < 1 nM

## COC(=O)N[C@H](C(=O)N1CCC[C@H]1c1ncc(-c2ccc(-c3ccc4cc(-c5c[nH]c([C@@H]6CCCN6C(=O)[C@@H](NC(=O)OC)C6CCOCC6)n5)ccc4n3)cc2)[nH]1)C(C)C [compound 39]
[2]
  EC50: < 1 nM

## COC(=O)N[C@H](C(=O)N1CCC[C@H]1c1ncc(-c2ccc(-c3ccc4cc(-c5cnc([C@@H]6CCCN6C(=O)[C@@H](NC(=O)OC)[C@@H](C)OC)[nH]5)ccc4n3)cc2F)[nH]1)C(C)C [compound 475]
Huh-7, HCV 1b replicon
  EC50: < 1 nM

## COC(=O)N[C@H](C(=O)N1CCC[C@H]1CNC(=O)c1cnc2cc(-c3ccc4c(c3)CCc3nc([C@@H]5CCCN5C(=O)[C@@H](NC(=O)OC)C(C)C)[nH]c3-4)ccc2c1)C(C)C [compound 549]
Huh-7, HCV 1b replicon
  EC50: 1 to 9.9 nM

## COC(=O)N[C@H](C(=O)N1CCC[C@H]1c1ncc(-c2ccc(-c3ccc4cc(-c5c[nH]c([C@@H]6CCCN6C(=O)[C@H](NC(=O)OC(C)(C)C)c6ccccc6)n5)ccc4n3)cc2)[nH]1)C1CCOCC1 [compound 91]
[2]
  EC50: < 1 nM

## COC(=O)N[C@@H](C(=O)N1CCC[C@H]1c1nc(-c2ccc3c(=O)n(-c4ccc(-c5cnc([C@@H]6CCCN6C(=O)[C@H](NC(=O)OC)c6ccccc6)[nH]5)cc4)ccc3c2)c[nH]1)c1ccccc1 [compound 288]
[2]
  EC50: < 1 nM

## COC(=O)N[C@H](C(=O)N1CCC[C@H]1C(=O)Nc1ccc(-c2ccc3cc(-c4cnc([C@@H]5CCCN5C(=O)[C@@H](NC(=O)OC)C(C)C)[nH]4)ccc3c2)cc1)C(C)C [compound 571]
Huh-7, HCV 1b replicon
  EC50: < 1 nM

## CC[C@H](C)[C@H](NC(=O)OC)C(=O)N1CCC[C@H]1c1nc2ccc(-c3ccc4cc(-c5cnc([C@@H]6CCCN6C(=O)[C@H](COC)NC(=O)OC)[nH]5)ccc4c3)cc2[nH]1 [compound 514]
Huh-7, HCV 1b replicon
  EC50: < 1 nM

## COC(=O)N[C@H](C(=O)N1CCC[C@H]1C(=O)N[C@H](C)c1ccc(-c2ccc3cc(-c4cnc([C@@H]5CCCN5C(=O)[C@@H](NC(=O)OC)C5CCOCC5)[nH]4)ccc3c2)cc1)C1CCOCC1 [compound 563]
Huh-7, HCV 1b replicon
  EC50: 1 to 9.9 nM

## COC(=O)N[C@@H](C)C(=O)N1CCC[C@H]1c1ncc(-c2ccc3cc(-c4ccc(-c5cnc([C@@H]6CCCN6C(=O)[C@H](NC(=O)OC)c6ccccc6)[nH]5)nn4)ccc3c2)[nH]1 [compound 499]
Huh-7, HCV 1b replicon
  EC50: < 1 nM

## COC(=O)N[C@H](C(=O)N1CCC[C@H]1c1ncc(-c2ccc3cc(-c4ccc5nc([C@@H]6CCCN6C(=O)[C@@H](c6ccccc6)N(C)C)[nH]c5c4)ccc3c2)[nH]1)C(C)C [compound 177]
[2]
  EC50: < 1 nM

## COC(=O)N[C@H](C(=O)N1CCC[C@H]1CNC(=O)c1cnc2cc(-c3ccc4nc([C@@H]5CCCN5C(=O)[C@@H](NC(=O)OC)C(C)C)[nH]c4c3)ccc2c1)C(C)C [compound 554]
Huh-7, HCV 1b replicon
  EC50: 1 to 9.9 nM

## COC(=O)N[C@@H](C(=O)N1CCCC[C@H]1c1ncc(-c2ccc(-c3nc4ccc(-c5cnc([C@@H]6CCCCN6C(=O)[C@H](NC(=O)OC)c6ccccc6)[nH]5)cc4s3)cc2)[nH]1)c1ccccc1 [compound 248]
[2]
  EC50: < 1 nM

## COC(=O)N[C@H](C(=O)N1CCC[C@H]1c1ncc(-c2ccc3nc(-c4ccc(-c5cnc([C@@H]6CCCN6C(=O)[C@@H](NC(=O)OC)C(C)C)[nH]5)c(F)c4)ccc3c2)[nH]1)C(C)C [compound 126]
[2]
  EC50: < 1 nM

## [2H]C([2H])([2H])C([2H])(C([2H])([2H])[2H])[C@@]([2H])(NC(=O)OC)C(=O)N1CCC[C@H]1c1ncc(-c2ccc3nc(-c4ccc(-c5cnc([C@@H]6CCCN6C(=O)[C@@H](NC(=O)OC)C6CCOCC6)[nH]5)cc4F)ccc3c2)[nH]1 [compound 158]
[2]
  EC50: < 1 nM

## COC(=O)N[C@H](C(=O)N1CCC[C@H]1c1ncc(-c2ccc3cc(-c4ccc5nc([C@@H]6CCCN6C(=O)[C@@H](NC(=O)OC)C(C)C)[nH]c5n4)ccc3c2)[nH]1)C(C)C [compound 198]
[2]
  EC50: < 1 nM

## COC(=O)N[C@H](C(=O)N1CCC[C@H]1c1ncc(-c2ccc3cc(-c4ccc(-c5cnc([C@@H]6CCCN6C(=O)[C@H](NC(=O)OC)c6cccs6)[nH]5)cc4)ccc3c2)[nH]1)C(C)C [compound 497]
Huh-7, HCV 1b replicon
  EC50: < 1 nM

## COC(=O)N[C@H](C(=O)N1CCC[C@H]1c1ncc(-c2ccc3cc(-c4cc5[nH]c([C@@H]6CCCN6C(=O)[C@@H](NC(=O)OC)C6CCCC6)nc5cn4)ccc3c2)[nH]1)C1CCCC1 [compound 411]
[1]
  EC50: < 1 nM

## COC(=O)N[C@H](C(=O)N1CCC[C@H]1c1ncc(-c2ccc(-c3ccc4cc(-c5cnc([C@@H]6CCCN6C(=O)[C@@H](NC(=O)OC)[C@@H](C)OC)[nH]5)ccc4c3)cc2)[nH]1)C(C)C [compound 481]
Huh-7, HCV 1b replicon
  EC50: < 1 nM

## COC(=O)N[C@H](C(=O)N1CCC[C@H]1c1ncc(-c2ccc3cc(-c4ccc(-c5cnc([C@@H]6CCCN6C(=O)[C@H](NC(=O)OC6CCOCC6)c6ccccc6)[nH]5)cc4F)ncc3c2)[nH]1)C(C)C [compound 153]
[2]
  EC50: < 1 nM

## COC(=O)N[C@@H](C(=O)N1CCC[C@H]1c1nc(-c2cnc3cc(-c4ccc(-c5cnc([C@@H]6CCCN6C(=O)[C@H](NC(=O)OC)c6ccccc6)[nH]5)cn4)ccc3c2)c[nH]1)c1ccccc1 [compound 80]
[2]
  EC50: < 1 nM

## COC(=O)N[C@H](C(=O)N1CCC[C@H]1c1ncc(-c2ccc3cc(-c4ccc5nc([C@@H]6CCCN6C(=O)[C@@H](NC(=O)OC)[C@@H](C)OC)[nH]c5n4)ccc3c2)[nH]1)[C@@H](C)OC [compound 530]
Huh-7, HCV 1b replicon
  EC50: < 1 nM

## CNC(=O)N[C@@H](C(=O)N1CCC[C@H]1c1ncc(-c2ccc3nc(-c4ccc(-c5cnc([C@@H]6CCCN6C(=O)[C@@H](NC(=O)OC)C(C)C)[nH]5)cc4)sc3c2)[nH]1)c1ccccc1 [compound 245]
[2]
  EC50: < 1 nM

## COC(=O)N[C@H](C(=O)N1CCC[C@H]1c1nc2ccc(-c3ccc4cc(-c5cnc([C@@H]6CCCN6C(=O)[C@H](NC(=O)OC6CCOCC6)c6ccccc6)[nH]5)ccc4n3)cc2[nH]1)C(C)C [compound 509]
Huh-7, HCV 1b replicon
  EC50: < 1 nM

## COC(=O)N[C@H](C(=O)N1CCC[C@H]1c1ncc(-c2ccc(-c3ccc4nc(-c5c[nH]c([C@@H]6CCCN6C(=O)[C@H](NC(=O)OC)c6ccccc6)n5)ccc4c3)cc2)[nH]1)C(C)C [compound 103]
[2]
  EC50: < 1 nM

## COC(=O)N[C@H](C(=O)N1CCC[C@H]1c1nc(-c2ccc3cc(-c4ccc(-c5cnc([C@@H]6CCCN6C(=O)[C@@H](NC(=O)OC)C6CCOCC6)[nH]5)nc4)ccc3c2)c[nH]1)C(C)C [compound 84]
[2]
  EC50: < 1 nM

## CC[C@@H](C)[C@H](NC(=O)OC)C(=O)N1CCC[C@H]1c1ncc(-c2ccc3cc(-c4ccc5nc([C@@H]6CCCN6C(=O)[C@@H](NC(=O)OC)[C@H](C)CC)[nH]c5c4)nnc3c2)[nH]1 [compound 396]
[1]
  EC50: < 1 nM

## COC(=O)N[C@H](C(=O)N1CCC[C@H]1c1ncc(-c2ccc3cc(-c4ccc(-c5cnc([C@@H]6CCCN6C(=O)[C@H](NC(=O)OC6CCOCC6)c6ccccc6)[nH]5)c(F)c4)ncc3c2)[nH]1)C1CCOCC1 [compound 154]
[2]
  EC50: < 1 nM

## COC[C@H](NC(=O)OC)C(=O)N1CCC[C@H]1c1ncc(-c2ccc3cc(-c4ccc(-c5cnc([C@@H]6COCCN6C(=O)[C@@H](NC(=O)OC)c6ccccc6)[nH]5)cc4)ccc3c2)[nH]1 [compound 462]
Huh-7, HCV 1b replicon
  EC50: < 1 nM

## COC(=O)N[C@H](C(=O)N1CCCC[C@H]1c1ncc(-c2ccc(-c3ccc4cc(-c5cnc([C@@H]6CCCN6C(=O)[C@@H](NC(=O)OC)C6CCOCC6)[nH]5)ccc4n3)cc2)[nH]1)C1CCOCC1 [compound 456]
Huh-7, HCV 1b replicon
  EC50: < 1 nM

## COC(=O)N[C@H](C(=O)N1CCC[C@H]1c1nc(-c2ccc3c(c2)CCN(c2c(F)cc(-c4cnc([C@@H]5CCCN5C(=O)[C@@H](NC(=O)OC)C5CC5)[nH]4)cc2F)C3)c[nH]1)C1CC1 [compound 271]
[2]
  EC50: < 1 nM

## COC(=O)N[C@H](C(=O)N1CCC[C@H]1c1nc2ccc(-c3cc4ccc(-c5cnc([C@@H]6CCCN6C(=O)[C@@H](NC(=O)OC)C6CCOCC6)[nH]5)cc4cn3)cc2[nH]1)C(C)C [compound 216]
[2]
  EC50: < 1 nM
